Like-named read-outs stand apart in the source and are kept apart here.
Molecular target: T1, human 11β-HSD1 (Homo sapiens, UniProt P28845)
T1 construct: expressed in transfected cells; host or cells: CHO cells (microsomes)
Assay: Biological Test Example 1: inhibition of microsomal preparation of 11β-HSD1 (SPA)
Type: biochemical
Details: for inhibition at 0.1 µM: read-out: Average % inhibition at 100 nM; for IC50: microsomes from CHO cells overexpressing human 11β-HSD1; for Average % inhibition at 100 nM: 0.1 µM
Experimental: The inhibition of microsomal preparation of 11β-HSD1 by compounds of the invention was measured essentially as previously described (K. Solly, S. S. Mundt, H. J. Zokian, G. J. Ding, A. Hermanowski-Vosatka, B. Strulovici, and W. Zheng, High-Throughput Screening of 11-Beta-Hydroxysteroid Dehydrogenase Type 1 in Scintillation Proximity Assay Format. Assay Drug Dev Technol 3 (2005) 377-384). All reactions were carried out at room temperature in 96 well clear flexible PET Microbeta plates (PerkinElmer). The assay begins by dispensing 49 μl of substrate solution (50 mM HEPES, pH 7.4, 100 mM KCl, 5 mM NaCl, 2 mM MgCl2, 2 mM NADPH and 160 nM [^3H]cortisone (1 Ci/mmol)) and mixing in 1 μL of the test compounds in DMSO previously diluted in half-log increments (8 points) starting at 0.1 mM. After a 10 minute pre-incubation, 50 μL of enzyme solution containing microsomes isolated from CHO cells overexpressing human 11β-HSD1 (10-20 μg/ml of total protein) was added, and the plates were incubated for 90 minutes at room temperature. The reaction was stopped by adding 50 μl of the SPA beads suspension containing 10 μM 18β-glycyrrhetinic acid, 5 mg/ml protein A coated YSi SPA beads (GE Healthcare) and 3.3 μg/ml of anti-cortisol antibody (East Coast Biologics) in Superblock buffer (Bio-Rad). The plates were shaken for 120 minutes at room temperature, and the SPA signal corresponding to [^3H]cortisol was measured on a Microbeta plate reader.

T1 sequence (P28845 whole entry): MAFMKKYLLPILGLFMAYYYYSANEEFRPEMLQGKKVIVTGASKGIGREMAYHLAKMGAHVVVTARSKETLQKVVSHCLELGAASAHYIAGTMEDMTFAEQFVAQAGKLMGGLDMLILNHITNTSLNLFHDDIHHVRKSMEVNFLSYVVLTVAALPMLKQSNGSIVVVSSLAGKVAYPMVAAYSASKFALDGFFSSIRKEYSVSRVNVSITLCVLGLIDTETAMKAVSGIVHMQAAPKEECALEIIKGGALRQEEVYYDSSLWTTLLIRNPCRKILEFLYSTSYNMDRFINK

Row | Compound | inhibition at 0.1 µM (at 100 nM) [%] | IC50 (read-out: IC50 Range) [nM] | other results
1 | C[C@@H](c1ccc(Br)cc1)N1CC[C@](CCCO)(c2ccc(F)cc2)N(C)C1=O (single isomer, unassigned) [Example 11 Isomer 1] | 64.4 | < 100 | 
2 | C=CC[C@@]1(c2ccc(F)cc2)CCN([C@@H](C)c2ccc(Br)cc2)C(=O)N1C (single isomer, unassigned) [Example 3 Isomer 2] |  | < 100 | inhibition at 0.1 µM: 60.5%
3 | C[C@@H](C1CCCCC1)N1CC[C@](CCCO)(c2ccccc2)NC1=O [Example 15, (R)-1-((S)-1-cyclohexylethyl)-4-(3-hydroxypropyl)-4-phenyltetrahydropyrimidin-2(1H)-one] | 96.1 | < 100 | 
4 | C[C@@H](c1ccc(Br)cc1)N1CC[C@@](CCCO)(c2ccc(F)cc2)N(C)C1=O (single isomer, unassigned) [Example 11 Isomer 2] | 26.1 | > 100 | 
5 | C[C@@H](C1CCCCC1)N1CC[C@](CCCO)(c2ccccc2)N(C)C1=O [Example 22, (R)-1-((S)-1-cyclohexylethyl)-4-(3-hydroxypropyl)-3-methyl-4-phenyltetrahydropyrimidin-2(1H)-one] | 30 | > 100 | 
6 | C=CC[C@]1(c2ccc(F)cc2)CCN([C@@H](C)c2ccc(Br)cc2)C(=O)N1C (single isomer, unassigned) [Example 3 Isomer 1] |  | < 100 | inhibition at 0.1 µM: 51.2%
7 | C[C@@H](c1ccc(Br)cc1)N1CC[C@](CC(C)(C)O)(c2ccccc2)NC1=O [Example 20, (S)-1-((S)-1-(4-bromophenyl)ethyl)-4-(2-hydroxy-2-methylpropyl)-4-phenyltetrahydropyrimidin-2(1H)-one] | 94.4 | < 100 | 
8 | C=CC[C@@]1(c2ccc(F)cc2)CCN([C@@H](C)c2ccc(Br)cc2)C(=O)N1 (single isomer, unassigned) [Example 2 Isomer 2] |  |  | IC50 (IC50 Range): < 100 nM; inhibition at 0.1 µM: 69.5%
9 | C[C@@H](c1ccc(-c2ccc(F)cc2F)cc1)N1CC[C@](CC(O)CO)(c2ccc(F)cc2)NC1=O (single isomer, unassigned) [Example 8 Isomer 2] |  | < 100 | Average % inhibition at 100 nM (at 100 nM): 94.8%
10 | C[C@@H](c1ccc(Br)cc1)N1CC[C@](CC(C)(C)C#N)(c2ccccc2)NC1=O [Example 23, 3-((R)-1-((S)-1-(4-bromophenyl)ethyl)-2-oxo-4-phenylhexahydropyrimidin-4-yl)-2,2-dimethylpropanenitrile] | 95.8 | < 100 | 
11 | C[C@@H](c1ccc(-c2ccc(F)cc2)cc1)N1CC[C@@](CC(O)CO)(c2ccc(F)cc2)NC1=O (single isomer, unassigned) [Example 9 Isomer 4] |  | > 100 | Average % inhibition at 100 nM (at 100 nM): 16.5%
12 | C[C@@H](c1ccc(-c2ccc(F)cc2F)cc1)N1CC[C@](CC(O)CO)(c2ccc(F)cc2)NC1=O (single isomer, unassigned) [Example 8 Isomer 1] | 96.3 | < 100 | 
13 | C[C@@H](c1ccc(Br)cc1)N1CC[C@](CCCNS(C)(=O)=O)(c2ccc(F)cc2)NC1=O [Example 19, N-(3-((R)-1-((S)-1-(4-bromophenyl)ethyl)-4-(4-fluorophenyl)-2-oxohexahydropyrimidin-4-yl)propyl)methanesulfonamide] |  | < 100 | inhibition at 0.1 µM: 96%
14 | C[C@@H](c1ccc(-c2ccc(F)cc2)cc1)N1CC[C@](CC(O)CO)(c2ccc(F)cc2)NC1=O (single isomer, unassigned) [Example 9 Isomer 2] |  | < 100 | Average % inhibition at 100 nM (at 100 nM): 93.5%
15 | Cc1cccc(N2CC[C@](C)(c3ccccc3)NC2=O)c1 [Example 1, (R)-4-methyl-4-phenyl-1-m-tolyltetrahydropyrimidin-2(1H)-one] |  |  | IC50 (IC50 Range): 100 to 1000 nM; inhibition at 0.1111 µM (read-out: Average % inhibition at 111.1 nM): 49.4%
16 | C[C@@H](c1ccc(-c2ccc(F)cc2)cc1)N1CC[C@@](CC(O)CO)(c2ccc(F)cc2)NC1=O (single isomer, unassigned) [Example 9 Isomer 3] |  | < 100 | Average % inhibition at 100 nM (at 100 nM): 38.5%
17 | C[C@@H](c1ccc(-c2ccc(F)cc2)cc1)N1CC[C@](CC(O)CO)(c2ccc(F)cc2)NC1=O (single isomer, unassigned) [Example 9 Isomer 1] | 94.5 | < 100 | 
18 | C[C@@H](c1ccc(-c2ccn(C)c(=O)c2)cc1)N1CC[C@](CC(C)(C)O)(c2ccccc2)NC1=O [Example 21, (S)-4-(2-hydroxy-2-methylpropyl)-1-((S)-1-(4-(1-methyl-2-oxo-1,2-dihydropyridin-4-yl)phenyl)ethyl)-4-phenyltetrahydropyrimidin-2(1H)-one] | 93.9 | < 100 | 

Now from value to compound, other results behind:

Row | inhibition at 0.1 µM (at 100 nM) [%] | IC50 (read-out: IC50 Range) [nM] | Compound | other results
19 | 94.3 | < 100 | COc1ccc([C@H](C)N2CC[C@](CCO)(c3ccc(F)cc3)NC2=O)cc1 [Example 17, (S)-4-(4-fluorophenyl)-4-(2-hydroxyethyl)-1-((S)-1-(4-methoxyphenyl)ethyl)tetrahydropyrimidin-2(1H)-one] | 
20 | 97.5 | < 100 | C[C@@H](c1ccc(Br)cc1)N1CC[C@](CCCO)(c2ccc(F)cc2)NC1=O [Example 18, (R)-1-((S)-1-(4-bromophenyl)ethyl)-4-(4-fluorophenyl)-4-(3-hydroxypropyl)tetrahydropyrimidin-2(1H)-one] | 
21 | 47.7 | < 100 | C[C@@H](c1ccc(-c2ccc(F)cc2F)cc1)N1CC[C@@](CCO)(c2ccc(F)cc2)NC1=O (single isomer, unassigned) [Example 6 Isomer 2] | 
22 | 96.9 | < 100 | C[C@@H](c1ccc(Cl)cc1)N1CC[C@](CCO)(c2ccc(F)cc2)NC1=O [Example 12, (S)-1-((S)-1-(4-chlorophenyl)ethyl)-4-(4-fluorophenyl)-4-(2-hydroxyethyl)tetrahydropyrimidin-2(1H)-one] | 
23 | 54.2 | < 100 | C[C@@H](c1ccc(-c2ccc(F)cc2)cc1)N1CC[C@@](CCCO)(c2ccc(F)cc2)NC1=O (single isomer, unassigned) [Example 10 Isomer 2] | 
24 | 102 | < 100 | C[C@@H](c1ccc(-c2ccc(F)cc2)cc1)N1CC[C@](CCCO)(c2ccc(F)cc2)NC1=O (single isomer, unassigned) [Example 10 Isomer 1] | 
25 | 94.8 | < 100 | C[C@@H](c1ccc(-c2ccc(F)cc2F)cc1)N1CC[C@](CCCO)(c2ccc(F)cc2)NC1=O (single isomer, unassigned) [Example 7 Isomer 1] | 
26 | 71 | < 100 | C[C@@H](c1ccc(-c2ccc(F)cc2F)cc1)N1CC[C@@](CCCO)(c2ccc(F)cc2)NC1=O (single isomer, unassigned) [Example 7 Isomer 2] | 
27 | 97.2 | < 100 | C[C@@H](c1ccc(-c2ccc(F)cc2F)cc1)N1CC[C@](CCO)(c2ccc(F)cc2)NC1=O (single isomer, unassigned) [Example 6 Isomer 1] | 
28 | 96.1 | < 100 | C[C@@H](c1ccc(Cl)cc1)N1CC[C@](CCCO)(c2ccc(F)cc2)NC1=O [Example 13, 1-((1S)-1-(4-chlorophenyl)ethyl)-4-(4-fluorophenyl)-4-(3-hydroxypropyl)tetrahydropyrimidin-2(1H)-one] | 
29 | 95.5 | < 100 | C[C@@H](c1ccc(-c2ccc(F)cc2)cc1)N1CC[C@](CCCO)(c2ccccc2)NC1=O (single isomer, unassigned) [Example 14 Isomer 1] | 
30 | 96.1 | < 100 | COc1ccc([C@H](C)N2CC[C@](CCCO)(c3ccc(F)cc3)NC2=O)cc1 [Example 16, (R)-4-(4-fluorophenyl)-4-(3-hydroxypropyl)-1-((S)-1-(4-methoxyphenyl)ethyl)tetrahydropyrimidin-2(1H)-one] | 
31 | 58 | < 100 | C[C@@H](c1ccc(-c2ccc(F)cc2)cc1)N1CC[C@@](CCCO)(c2ccccc2)NC1=O (single isomer, unassigned) [Example 14 Isomer 2] | 

Reference: US9079861B2, “Cyclic urea inhibitors of 11β-hydroxysteroid dehydrogenase 1” (Vitae Pharmaceuticals, Inc., priority 2007, dated 2015)
